Test results from patent US20210379066A1, “COMBINATIONS OF POSITIVE ALLOSTERIC MODULATORS AND NICOTINIC ACETYLCHOLINE RECEPTOR AGONISTS FOR TREATING OCULAR CONDITIONS” (Oyster Point Pharma, Inc., priority 2018, published 2021).

Tests used:
[1] = Measured plasma Cmax after nasal spray (Example 4); type: in vivo; details: human, inhaled or intranasal; blood plasma of 30 individuals; nasal spray of 1.1% compound 1 free base (2.0% hemi-galactarate dihydrate), 200 microliters total, about 2216 micrograms free base
Procedure: A dose of a nAChR agonist, or a pharmaceutically acceptable salt thereof, is administered to an individual. Examples of dose and volume ranges are described herein.
A blood sample is collected from an individual before administration of a nAChR agonist, or a pharmaceutically acceptable salt thereof. After administration of the nAChR agonist, or a pharmaceutically acceptable salt thereof, to the individual, multiple blood samples are collected over a period of time at certain intervals. For instance, blood samples are collected at 10 minutes, 20 minutes, 30 minutes, 1 hour, 2 hours, 3 hours, and 4 hours after administration of the nAChR agonist, or a pharmaceutically acceptable salt thereof.
Blood samples (4 mL in K2EDTA tubes) are collected from an arm vein into Vacutainer tubes containing K2EDTA. […]
All pharmacokinetic (PK) analyses and reporting are performed according to generally accepted standard operating procedures and protocol specifications. Pharmacokinetic parameters are calculated by use of generally accepted software tools, for instance Phoenix® WinNonlin® 8.0.
A plasma concentration time plot is created by plotting the concentration of the nAChR agonist, or pharmaceutically acceptable salt thereof, as a function of time. Cmax is calculated by inspection of an individual's plasma concentration time plot. […] The Cmax is calculated for an individual after a treatment. […]

human nAChR alpha3beta4 = target: T1, human nAChR alpha3beta4 (Homo sapiens, UniProt P30926+P32297); experiment: Agonist activity, two-electrode voltage clamp in Xenopus oocytes (Examples 2 and 5); type: cell-based; details: versus ACh response
T1 construct: expressed in transfected cells; host or cells: Xenopus laevis oocytes (cDNA injection)
T1 sequence (P32297 32-505): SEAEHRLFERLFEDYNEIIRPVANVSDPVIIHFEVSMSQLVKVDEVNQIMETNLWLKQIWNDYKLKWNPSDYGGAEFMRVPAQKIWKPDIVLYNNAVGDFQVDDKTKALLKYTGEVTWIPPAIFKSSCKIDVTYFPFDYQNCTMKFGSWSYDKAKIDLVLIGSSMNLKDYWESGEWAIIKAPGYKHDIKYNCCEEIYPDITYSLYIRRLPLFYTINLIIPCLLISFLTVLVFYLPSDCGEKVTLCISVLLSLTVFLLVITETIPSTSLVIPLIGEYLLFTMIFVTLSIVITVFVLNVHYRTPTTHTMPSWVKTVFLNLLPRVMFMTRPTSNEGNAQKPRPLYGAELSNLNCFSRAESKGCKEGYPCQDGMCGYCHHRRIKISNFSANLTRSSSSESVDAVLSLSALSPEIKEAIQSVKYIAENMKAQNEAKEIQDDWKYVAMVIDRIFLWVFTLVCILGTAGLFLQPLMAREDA
T1 sequence (P30926 22-498): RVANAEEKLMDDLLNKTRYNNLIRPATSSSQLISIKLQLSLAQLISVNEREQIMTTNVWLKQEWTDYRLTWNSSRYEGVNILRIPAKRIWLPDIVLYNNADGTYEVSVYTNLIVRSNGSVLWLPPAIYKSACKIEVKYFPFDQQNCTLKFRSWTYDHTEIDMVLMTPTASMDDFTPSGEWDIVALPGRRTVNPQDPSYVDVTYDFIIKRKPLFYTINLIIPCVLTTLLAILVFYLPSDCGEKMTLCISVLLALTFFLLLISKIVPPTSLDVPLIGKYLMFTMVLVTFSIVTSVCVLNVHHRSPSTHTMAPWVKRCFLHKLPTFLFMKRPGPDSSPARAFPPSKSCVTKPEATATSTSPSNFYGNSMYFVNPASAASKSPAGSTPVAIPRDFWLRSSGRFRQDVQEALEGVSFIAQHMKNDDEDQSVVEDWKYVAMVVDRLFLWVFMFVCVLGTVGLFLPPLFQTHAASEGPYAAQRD
Procedure: (§1) All experiments were carried out at human nAChRs expressed in Xenopus oocytes using the method of cDNA expression. Xenopus oocytes were prepared and injected using standard procedures.
(§2) Briefly, ovaries were harvested from Xenopus Laevis females that have been deeply anesthetized by cooling at 4° C. and Tricaine methanesulfonate (MS-222 at a concentration of 150 mg/L) in sodium bicarbonate (300 mg/L). Once anesthetized the animal was decapitated and pithed following the rules of animal rights from the Geneva canton. A small piece of ovary was isolated for immediate preparation while the remaining part was placed at 4° C. in a sterile Barth solution containing in mM NaCl 88, KCl 1, NaHCO32.4, HEPES 10, MgSO4.7H2O 0.82, Ca(NO3)2.4H2O 0.33, CaCl2.6H2O 0.41, at pH 7.4, and supplemented with 20 μg/ml of kanamycin, 100 unit/ml penicillin. All recordings were performed at 18° C. and cells superfused with OR2 medium containing in mM: NaCl 88, KCl 2.5, HEPES 5, CaCl2.2H2O 1.8, MgCl2.6H2O 1, pH 7.4.
(§3) Currents evoked by ACh or other agonists were recorded using an automated process equipped with standard two-electrode voltage-clamp configuration (TEVC). Data were captured and analyzed using a HiQScreen proprietary data acquisition and analysis software running under Matlab (Mathworks Inc.).
(§4) See Example 1. […] The test concentration of acetylcholine chloride was 1280 micromolar.
(§5) Injections of cDNAs encoding for the human alpha3beta4, alpha3alpha5beta4, alpha4beta2, and alpha7 were performed in at least 95 oocytes were performed using a proprietary automated injection and receptor expression examined at least two days later. Oocytes were poked with two electrodes and their membrane potential maintained, unless indicated, at −80 mV throughout the experiment.
(§6) A protocol to determine agonistic activity in the oocytes expressing the nAChRs was developed. The cells were exposed to a series of increasing concentrations of a compound agonist for 10 seconds each at two minute intervals. The current evoked from exposure to the agonist at each concentration was recorded. For oocytes expressing alpha7 nAChRs, exposure to the agonist was reduced to 5 seconds. This process was repeated for each agonist tested against each type of nAChR expressing cell.
(§7) To evaluate the agonistic properties of compound 1 hemi-galactarate dihydrate a protocol of brief exposures to a series of growing concentrations of compound 1 hemi-galactarate dihydrate was used.
(§8) Agonist Preparation: See Example 1. […] The test concentration of acetylcholine chloride was 1280 micromolar.
as §5, with “Experimental Procedures: Injections” for “Injections”, “alpha4beta2, alpha4alpha6beta2,” for “alpha4beta2,”, “oocytes” for “oocytes were performed”, “injection device. Cellular” for “injection and”, “expression was” for “expression”
as §6, with “developed. Oocytes expressing a nAChR subtype were exposed to a brief test pulse of acetylcholine (1280 micromolar) while the holding current and response was evaluated. Cells displaying robust currents were washed for 90 seconds.” for “developed.”, “were then” for “were”, “nAChR” for “compound”, “intervals. The nAChR agonist test concentrations were 0.1, 0.3, 1, 3, 10, 30, 100, 300 (micromolar).” for “intervals.”

human nAChR alpha7 = target: T2, human nAChR alpha7 (Homo sapiens, UniProt P36544); experiment: as above; type: cell-based; details: versus ACh response
T2 construct: expressed in transfected cells; host or cells: Xenopus laevis oocytes (cDNA injection)
T2 sequence (P36544 23-502): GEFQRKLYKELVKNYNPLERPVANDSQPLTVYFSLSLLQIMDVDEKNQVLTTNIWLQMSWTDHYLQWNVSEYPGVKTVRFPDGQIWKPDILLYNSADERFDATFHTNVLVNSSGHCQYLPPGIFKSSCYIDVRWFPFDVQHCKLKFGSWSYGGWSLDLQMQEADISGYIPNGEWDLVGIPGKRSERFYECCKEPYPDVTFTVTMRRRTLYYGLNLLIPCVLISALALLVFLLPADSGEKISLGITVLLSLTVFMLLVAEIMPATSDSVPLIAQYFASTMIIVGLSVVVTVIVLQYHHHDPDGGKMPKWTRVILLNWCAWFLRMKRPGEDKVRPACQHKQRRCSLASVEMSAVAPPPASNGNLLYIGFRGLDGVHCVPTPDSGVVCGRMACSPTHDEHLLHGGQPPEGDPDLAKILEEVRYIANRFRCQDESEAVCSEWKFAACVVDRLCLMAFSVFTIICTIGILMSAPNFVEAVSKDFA
Procedure: as §1, §2, §3, §4, §5, §6, §7, §8
as §5, with “Experimental Procedures: Injections” for “Injections”, “alpha4beta2, alpha4alpha6beta2,” for “alpha4beta2,”, “oocytes” for “oocytes were performed”, “injection device. Cellular” for “injection and”, “expression was” for “expression”
as §6, with “developed. Oocytes expressing a nAChR subtype were exposed to a brief test pulse of acetylcholine (1280 micromolar) while the holding current and response was evaluated. Cells displaying robust currents were washed for 90 seconds.” for “developed.”, “were then” for “were”, “nAChR” for “compound”, “intervals. The nAChR agonist test concentrations were 0.1, 0.3, 1, 3, 10, 30, 100, 300 (micromolar).” for “intervals.”

[2] = target: T3, human nAChR alpha3alpha5beta4 (Homo sapiens, UniProt P30532+P30926+P32297); experiment: as above; type: cell-based; details: versus ACh response
T3 construct: expressed in transfected cells; host or cells: Xenopus laevis oocytes (cDNA injection)
T3 sequence (P32297 32-505): as the sequence (P32297 32-505) above
T3 sequence (P30532 23-468): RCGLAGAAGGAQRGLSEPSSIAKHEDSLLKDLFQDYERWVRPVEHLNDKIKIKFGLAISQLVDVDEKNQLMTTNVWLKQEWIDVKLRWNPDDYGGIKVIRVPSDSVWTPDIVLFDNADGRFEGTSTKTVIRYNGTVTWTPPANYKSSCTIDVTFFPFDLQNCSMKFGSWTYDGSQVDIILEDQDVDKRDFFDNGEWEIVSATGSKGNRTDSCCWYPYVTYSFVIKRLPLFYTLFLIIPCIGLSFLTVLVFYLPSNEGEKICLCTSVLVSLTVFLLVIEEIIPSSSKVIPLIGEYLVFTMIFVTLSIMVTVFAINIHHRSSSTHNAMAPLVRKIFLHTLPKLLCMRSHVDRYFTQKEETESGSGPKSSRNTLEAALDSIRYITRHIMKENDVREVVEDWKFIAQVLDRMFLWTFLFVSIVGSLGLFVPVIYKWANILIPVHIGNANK
T3 sequence (P30926 22-498): as the sequence (P30926 22-498) above
Procedure: as §1, §2, §3, §4, §5, §6, §7, §8
as §5, with “Experimental Procedures: Injections” for “Injections”, “alpha4beta2, alpha4alpha6beta2,” for “alpha4beta2,”, “oocytes” for “oocytes were performed”, “injection device. Cellular” for “injection and”, “expression was” for “expression”
as §6, with “developed. Oocytes expressing a nAChR subtype were exposed to a brief test pulse of acetylcholine (1280 micromolar) while the holding current and response was evaluated. Cells displaying robust currents were washed for 90 seconds.” for “developed.”, “were then” for “were”, “nAChR” for “compound”, “intervals. The nAChR agonist test concentrations were 0.1, 0.3, 1, 3, 10, 30, 100, 300 (micromolar).” for “intervals.”

human nAChR alpha4beta2 = target: T4, human nAChR alpha4beta2 (Homo sapiens, UniProt P17787+P43681); experiment: as above; type: cell-based; details: versus ACh response
T4 construct: expressed in transfected cells; host or cells: Xenopus laevis oocytes (cDNA injection)
T4 sequence (P43681 29-627 limits assumed): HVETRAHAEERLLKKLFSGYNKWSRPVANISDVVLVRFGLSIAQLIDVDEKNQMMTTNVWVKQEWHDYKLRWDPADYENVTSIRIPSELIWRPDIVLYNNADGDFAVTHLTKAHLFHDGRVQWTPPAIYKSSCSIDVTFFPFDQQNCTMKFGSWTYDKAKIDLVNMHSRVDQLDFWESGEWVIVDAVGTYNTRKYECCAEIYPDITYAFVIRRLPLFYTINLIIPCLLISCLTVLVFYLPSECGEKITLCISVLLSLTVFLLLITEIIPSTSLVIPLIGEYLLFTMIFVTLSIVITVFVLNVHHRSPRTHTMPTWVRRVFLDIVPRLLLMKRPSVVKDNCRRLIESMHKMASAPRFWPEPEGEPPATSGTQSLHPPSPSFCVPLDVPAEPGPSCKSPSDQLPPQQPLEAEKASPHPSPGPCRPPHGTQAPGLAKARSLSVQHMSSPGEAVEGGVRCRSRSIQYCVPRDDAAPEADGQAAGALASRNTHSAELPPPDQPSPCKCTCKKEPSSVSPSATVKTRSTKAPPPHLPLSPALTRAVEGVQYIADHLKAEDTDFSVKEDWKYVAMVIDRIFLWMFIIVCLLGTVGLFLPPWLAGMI
T4 sequence (P17787 26-502): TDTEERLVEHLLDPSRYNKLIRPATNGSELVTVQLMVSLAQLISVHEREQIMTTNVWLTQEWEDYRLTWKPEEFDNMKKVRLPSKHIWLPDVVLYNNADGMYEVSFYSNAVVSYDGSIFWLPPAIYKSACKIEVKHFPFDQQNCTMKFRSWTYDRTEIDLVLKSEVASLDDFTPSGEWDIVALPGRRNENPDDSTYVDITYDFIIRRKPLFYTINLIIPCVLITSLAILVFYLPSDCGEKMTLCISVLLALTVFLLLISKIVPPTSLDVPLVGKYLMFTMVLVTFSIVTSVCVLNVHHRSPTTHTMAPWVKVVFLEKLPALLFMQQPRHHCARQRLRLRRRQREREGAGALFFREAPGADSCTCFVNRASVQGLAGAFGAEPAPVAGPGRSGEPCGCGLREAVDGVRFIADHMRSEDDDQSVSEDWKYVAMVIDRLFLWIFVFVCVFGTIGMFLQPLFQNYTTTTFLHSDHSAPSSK
Procedure: as §1, §2, §3, §4, §5, §6, §7, §8
as §5, with “Experimental Procedures: Injections” for “Injections”, “alpha4beta2, alpha4alpha6beta2,” for “alpha4beta2,”, “oocytes” for “oocytes were performed”, “injection device. Cellular” for “injection and”, “expression was” for “expression”
as §6, with “developed. Oocytes expressing a nAChR subtype were exposed to a brief test pulse of acetylcholine (1280 micromolar) while the holding current and response was evaluated. Cells displaying robust currents were washed for 90 seconds.” for “developed.”, “were then” for “were”, “nAChR” for “compound”, “intervals. The nAChR agonist test concentrations were 0.1, 0.3, 1, 3, 10, 30, 100, 300 (micromolar).” for “intervals.”

For `C(=C\[C@H]1CCNC1)/c1cncnc1` [Compound 1, (R)-5-((E)-2-pyrrolidin-3-ylvinyl)pyrimidine], the Cmax [1] was 2.92 ng/mL, the agonist character (human nAChR alpha3beta4) was “full agonist” and the agonist character (human nAChR alpha7) was “weak partial agonist”. For the same molecule, the agonist character [2] was “full agonist” and the agonist character (human nAChR alpha4beta2) was “full agonist”.
